Source: ChEMBL document CHEMBL1131348, “Pyrazolo[1,5-a]pyrimidine CRF-1 receptor antagonists” (Bioorg Med Chem Lett, 1998)

Biological target: T1, Corticotropin-releasing factor receptor 1 (Homo sapiens, UniProt P34998)
T1 sequence (P34998 whole entry): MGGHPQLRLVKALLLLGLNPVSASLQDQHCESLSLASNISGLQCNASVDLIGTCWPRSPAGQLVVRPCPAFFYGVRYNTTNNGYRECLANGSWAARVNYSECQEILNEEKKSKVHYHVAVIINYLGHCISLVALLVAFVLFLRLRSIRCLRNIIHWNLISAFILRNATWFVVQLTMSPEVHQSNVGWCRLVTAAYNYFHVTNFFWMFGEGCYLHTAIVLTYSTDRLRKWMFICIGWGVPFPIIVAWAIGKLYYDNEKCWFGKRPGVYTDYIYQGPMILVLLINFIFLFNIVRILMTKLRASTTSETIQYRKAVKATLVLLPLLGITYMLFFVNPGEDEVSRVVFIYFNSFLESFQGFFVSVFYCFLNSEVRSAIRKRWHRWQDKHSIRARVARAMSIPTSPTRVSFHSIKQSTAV
Test: Displacement of [125I]0-CRF from human Corticotropin releasing factor receptor 1 expressed in CHO cells
Type: cell-based

Point of comparison: `CCCCN(CC)c1nc(C)nc2c1c(C)cn2-c1c(C)cc(C)cc1C` [CP-154526], Ki 56 nM. Against it:
- CCCCN(CC)c1cc(C)nc2c(-c3ccc(Cl)cc3Cl)c(C)nn12 — 11-fold lower, 5 nM
- Cc1cc(N2CCCCC2)n2nc(C)c(-c3ccc(Cl)cc3Cl)c2n1 — within 1.5-fold, 41 nM
- CCCCN(CC)c1cc(C)nc2c(-c3ccccc3Cl)c(C)nn12 — 3.7-fold lower, 15 nM
- CCCCNc1cc(C)nc2c(-c3ccc(Cl)cc3Cl)c(C)nn12 — within 1.5-fold, 69 nM
- CCCCN(CC)c1cc(C)nc2c(-c3ccc(Cl)cc3)c(C)nn12 — within 1.5-fold, 77 nM
- CCCCN(CC)c1cc(C)nc2c(-c3ccc(Cl)cc3Cl)cnn12 — within 1.5-fold, 40 nM
- CCCCN(CC)c1cc(C)nc2c(-c3ccccc3)c(C)nn12 — 9.1-fold higher, 511 nM
- Cc1cc(N2CCOCC2)n2nc(C)c(-c3ccc(Cl)cc3Cl)c2n1 — 5.5-fold higher, 310 nM
- CCCCN(OC)c1cc(C)nc2c(-c3ccc(Cl)cc3Cl)c(C)nn12 — 3.9-fold higher, 216 nM
- CCCN(CC1CC1)c1cc(C)nc2c(-c3ccc(Cl)cc3Cl)c(C)nn12 — 18-fold lower, 3.2 nM
- CCN(CCOC)c1cc(C)nc2c(-c3ccc(Cl)cc3Cl)c(C)nn12 — 5.1-fold lower, 11 nM
- CCCCN(CC)c1cc(C)nc2c(-c3c(Cl)cc(Cl)cc3Cl)c(C)nn12 — 1.7-fold higher, 93 nM
- CCCC1CCCCN1c1cc(C)nc2c(-c3ccc(Cl)cc3Cl)c(C)nn12 (centres undefined) — 8.8-fold lower, 6.4 nM
